# Measurements as given in PMC10901950, “Neuroprotective and Anti-inflammatory Effects of Rubiscolin-6 Analogs with Proline Surrogates in Position 2” (Neurochemical Research, 2023).
# Assays:
# AKT = test: Western blot, AKT phosphorylation in 6-OHDA-treated SH-SY5Y cells; type: cell-based, human; conditions: peptide 10 µM, 2.5-10 min, 6-OHDA 100 µM treated cells
# Protocol: The neuroblastoma SH-SY5Y cells were grown in a 6-well plate and when 80–90% confluent treated with 6-OHDA (100 µM) for 24 h. Then cells were stimulated with peptides for 2.5, 5, 7.5 and 10 min (for AKT) or 24 h (for mTOR). When needed, a 30 min pre-incubation step with LY 294002 was included before analogs and 6-OHDA addition. Stimulation was terminated by aspiration of the medium. Cells were washed 2 times with ice-cold PBS, and then 200 µL of ice-cold lysis buffer [150 mM NaCl, 20 mM Tris–HCl, glycerol, 5 mM EDTA, 0.5 mM phenylmethylsulphonylfluoride (PMSF), 10% Triton X-100, 100 mM protease inhibitors, pH 7.4] was added. Cells were incubated on ice for 15 min. Lysates were then centrifuged at 12,000×g for 10 min at 4 °C, and the supernatants were used as the total cell lysates. The protein content in the supernatants was quantified using the Bio-Rad protein assay kit. Equal amounts of protein were separated on 10% sodium dodecyl sulfate (SDS)-polyacrylamide gels and transferred to polyvinylidene difluoride membranes from (PVDF, Millipore, Cork, Ireland). Non-specific binding was blocked with tris-buffered saline Tween-20 (TBS-T: 150 mM NaCl, 20 mM Tris–HCl, 0.1% Tween 20, pH 7.5) containing 5% nonfat milk for 2 h at room temperature. Then, the membrane was incubated overnight at 4 °C with one of the following specific primary antibodies: Vinculin (1:1000 dilution; Cell Signalling Technology, Danvers, MA, USA), p-AKT (1:1000 dilution; Cell Signalling Technology, Danvers, MA, USA), AKT (1:1000 dilution; Cell Signalling Technology, Danvers, MA, USA), p-mTOR (1:1000 dilution; Cell Signalling Technology, Danvers, MA, USA), mTOR (1:1000 dilution; Cell Signalling Technology, Danvers, MA, USA). After incubation, membranes were washed six times per 5 min with TBS-T. In the next step, membranes were incubated with HRP-conjugated secondary antibodies (1:1000 dilution; Cell Signalling Technology, Danvers, MA, USA) for 1 h. Following six washes with TBS-T, the protein bands were detected with the Clarity Western ECL reagent from Bio-Rad. The band intensity was quantified by NIH ImageJ densitometric analysis. For quantification, specific phosphorylation was calculated as the ratio of phosphorylated AKT or mTOR signals to the total Akt or mTOR signal detected. Values of unstimulated samples were set to 1.0. The original immunoblots are provided in Supplementary data.
# SH-SY5Y cells [1] = test: Neuroprotection in 6-OHDA-treated SH-SY5Y cells (MTT); type: cell-based, human; conditions: 6-OHDA 100 µM, 24 h, vehicle 100.00 ± 4.60%
# Protocol: The neuroprotective experiments were performed in an in vitro model of a human neuroblastoma cell line (SH-SY5Y) obtained from the German Collection of Microorganisms and Cell Cultures GmbH (DSMZ) Bank (ACC 209). Cells were cultured in Dulbecco’s Modified Eagle’s Medium: Nutrient Mixture F12 (DMEM:F12) supplemented with 1% antibiotic/antimycotic (Amphotericin B, Penicillin and Streptomycin) (Biowest, Nuaillé, France) and 10% (v/v) Fetal Bovine Serum (FBS) (Biowest, Riverside, MO, USA). The anti-inflammatory experiments were performed in an in vitro model of mouse macrophage-like RAW 264.7 cells, purchased from American Type Culture Collection (ATCC, Manassas, VA, USA). Cells were maintained in DMEM medium (Gibco™, Grand Island, NY) and supplemented with 10% bovine calf serum (BCS) (Gibco™, Grand Island, NY) and 1% penicillin–streptomycin (Sigma-Aldrich, St. Louis, MO, USA). Cell cultures were kept at 37 °C in 5% CO2/humidified air.
# Cells were incubated with peptides (0.1–10 µM) for 24 h to assess their cytotoxic activity. In the neuroprotective model, SH-SY5Y cells were exposed to 6-OHDA (100 µM) in the absence/presence of peptide at non-toxic concentrations (0.1–10 µM). When needed, a 30 min pre-incubation step with β-funaltrexamine (β-FNA, µ-opioid receptor antagonist, 10 µM), naltrindole (NLT, δ-opioid receptor antagonist, 10 µM), 2’-amino-3’-methoxyflavone (PD 98059, MAPK kinase 1 (MEK 1) inhibitor, 50 µM) or 2-(4-morpholinyl)-8-phenyl-4H-1-benzopyran-4-one (LY 294002, PI3-K inhibitor, 20 µM). Stimulation was terminated by aspiration of the medium and adding 100 µL MTT (1.2 mM) per well. Cells were incubated for 1 h at 37 °C. After this time, MTT was removed, and 100 µL DMSO was added. The resulting absorbance was read in a microplate reader (Biotek, Epoch/2 microplate reader, Winooski, VT, USA) at 570 nm.
# Cell metabolic activity (cytotoxicity) was calculated as the percentage of the value obtained for cells incubated with compounds compared to control cells treated with the medium.
# SH-SY5Y cells [2] = test: Mitochondrial membrane potential (JC-1) in 6-OHDA-treated SH-SY5Y cells; type: cell-based, human; conditions: 6-OHDA 100 µM, 6 h, JC-1
# Protocol: Mitochondrial function was assessed by monitoring changes in MMP (∆Ψm) using the fluorescent probe, JC-1 fluorescence dye (5,5′,6,6′-tetrachloro-1,1′,3,3′-tetraethyl-imidacarbocyanine iodide, Molecular Probes, T3168, Eugene, Oregon, USA). The assay was performed according to the method described by Silva et al.. Briefly, SH-SY5Y cells were exposed 6 h to 6-OHDA (100 μM) in the presence or absence of peptides. After incubation, cells were washed with ice-cold PBS, and then JC-1 reagent (3 µM, 200 µL) was added for 15 min at 37 °C. Afterwards, JC-1 was removed, and cells were washed with PBS. The formation of JC-1 aggregates (490 nm of excitation and 590 nm of emission) and the monomeric form of JC-1 (490 nm of excitation and 530 nm of emission) was accompanied simultaneously in the plate reader for 30 min. Results were expressed as the ratio of the monomers/aggregates of JC-1 in the percentage of control.
# SH-SY5Y cells [3] = test: Intracellular ROS production in 6-OHDA-treated SH-SY5Y cells; type: cell-based, human; conditions: 6-OHDA 100 µM
# Protocol: (§1) The detection of ROS generated in injured cells was evaluated using the 5(6)-carboxy-2ʹ,7ʹ-dichlorofluorescein diacetate (carboxy-H2DCFDA) reagent (Invitrogen, Bleiswijk, Netherlands). After incubation, cells were washed with ice-cold Phosphate-Buffer Saline (PBS). Then, the carboxyl-H2DCFDA (100 µL, 20 µM) reagent was added and incubated for 1 h at 37 °C. Finally, the fluorescence intensity was measured at wavelengths of […], and ROS levels were presented in percentage of control (non-treated cells).
# Caspase-3 = Caspase-3 activity in 6-OHDA-treated SH-SY5Y cells; type: cell-based, human; conditions: STAU 1 µM, positive control
# Protocol: Caspase-3 activity was assessed using “Caspase-3 fluorometric assay” (Sigma, St. Louis, MO, USA) with minor changes adapted by Silva et al.. The cells were treated with 6-OHDA (100 µM) for 6 h in the presence or absence of peptides. After this period, the culture medium was removed, and cells were rinsed with ice-cold PBS and collected by centrifugation at 3300×g for 5 min. The pellets were resuspended in lysis buffer, incubated for about 20 min on ice and finally centrifuged at 22,500×g, 4 °C, for 20 min. Cell lysates were processed following the manufacturer’s protocol, and fluorescence was read at wavelengths of 360 nm (excitation) and 460 nm (emission). Caspase-3 activity was calculated through the curve slope and presented as Δ fluorescence (a.u.)/mg of protein/min). Staurosporine (STAU, 1 µM) was used as positive control.
# [4] = test system: LPS-stimulated RAW 264.7 cells; test: Intracellular ROS formation in LPS-stimulated RAW 264.7 cells; type: cell-based, mouse; conditions: LPS 1 µg/mL
# Protocol: The cytotoxic and anti-inflammatory effects of peptides on RAW 264.7 cells were estimated using MTT assay. Cells were incubated with peptides (0.1–10 µM) for 24 h to assess their cytoprotective activity. In the anti-inflammatory model, RAW 264.7 cells were exposed to LPS (Millipore Sigma, Darmstadt, Germany) at 1 µg/mL in the absence/presence of peptide at non-toxic concentrations (0.1–10 µM). Then, the MTT reagent was added to wells, and cells were incubated for 1.5 h at 37 °C. After this time, MTT was removed, 100 µL DMSO was added, and the resulting absorbance was read in a microplate reader (Synergy 2 BioTek Microplate Reader, Winooski, VT, USA) at 570 nm.
# as §1
# [5] = test system: LPS-stimulated RAW 264.7 cells; test: Nitric oxide production in LPS-stimulated RAW 264.7 cells (Griess); type: cell-based, mouse; conditions: LPS 1 µg/mL
# Protocol: The level of NO production was determined in RAW 264.7 cells. Briefly, after cells attachment, they were treated with LPS (Millipore Sigma, Darmstadt, Germany) at 1 µg/mL for 24 h, and then the peptides were added for an additional 24 h. After cells’ treatment, the medium was collected, and the accumulation of NO metabolite in the cell culture supernatant was measured using Griess reagent (1% sulfanilamide and 0.1% naphthylethylenediamine dihydrochloride; Sigma Aldrich), where 50 µL of the supernatant was mixed with 50 µL of Griess reagent (40 mg/mL) in a 96-well plate. After incubation at room temperature and darkness for 10 min, the absorbance was measured at 540 nm. Cells treated with LPS without samples were used as the positive control of the inflammatory response.
compound,measurement,setting,value
"NCCc1cc(O)c(O)cc1O [6-OHDA, 6-hydroxydopamine, reference compound]",AKT phosphorylation,AKT,blocked
same,viable cells after 6-OHDA exposure,SH-SY5Y cells [1],48.63 ± 1.25 % of viable cells
same,increase of MMP depolarization compared to vehicle,SH-SY5Y cells [2],114%
same,increase of ROS levels compared with vehicle,SH-SY5Y cells [3],around 80%
"CN[C@@H]1C[C@H]2O[C@@](C)([C@@H]1OC)n1c3ccccc3c3c4c(c5c6ccccc6n2c5c31)C(=O)NC4 [STAU, Staurosporine, reference compound]",effect on Caspase-3 activity,Caspase-3,marked increase
"lipopolysaccharide [LPS, reference compound]",ROS level compared to the control,[4],increased almost twice
same,NO levels compared to the unstimulated control,[5],exceeded 330%
